Counter-ions that a name gives are not always drawn. ± gives the standard error.
What was measured:
621-102 (TSC2-deficient) = test: relative viability vs DMSO; higher = less cytotoxic; settings: serum: 10% FBS, 72 h
621-103 (TSC2-rescued) = test: as above; settings: serum: 10% FBS, 72 h
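Also: immortalized renal angiomyolipoma cells stably carrying empty vector or TSC2, dosed in 384-well plates in DMEM, viability normalized to vehicle-treated wells within each plate.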

| SMILES | relative viability (621-102 (TSC2-deficient); 0.0001 µM) [%] | relative viability (621-102 (TSC2-deficient); 0.001 µM) [%] | relative viability (621-102 (TSC2-deficient); 0.01 µM) [%] | relative viability (621-102 (TSC2-deficient); 0.1 µM) [%] | relative viability (621-102 (TSC2-deficient); 1 µM) [%] | relative viability (621-102 (TSC2-deficient); 10 µM) [%] | relative viability (621-103 (TSC2-rescued); 0.0001 µM) [%] | relative viability (621-103 (TSC2-rescued); 0.001 µM) [%] | relative viability (621-103 (TSC2-rescued); 0.01 µM) [%] | relative viability (621-103 (TSC2-rescued); 0.1 µM) [%] | relative viability (621-103 (TSC2-rescued); 1 µM) [%] | relative viability (621-103 (TSC2-rescued); 10 µM) [%] |
| --- | --- | --- | --- | --- | --- | --- | --- | --- | --- | --- | --- | --- |
| CC(=O)O[C@H]1C[C@@H]2CC[C@@H]3[C@H](CC[C@@]4(C)[C@H]3C[C@H]([N+]3(C)CCCCC3)[C@@H]4OC(C)=O)[C@@]2(C)C[C@@H]1[N+]1(C)CCCCC1 [Pancuronium bromide] | 83.8 ± 6.4 | 95.36 ± 0.26 | 93.6 ± 3.5 | 91.4 ± 3.3 | 84.1 ± 1.2 | 52.5 ± 0.78 | 97.7 ± 0.99 | 104 ± 1.3 | 101 ± 2.5 | 95 ± 3.6 | 93.8 ± 4.2 | 51.35 ± 0.38 |
| Cc1ccc(Nc2nccc(N(C)c3ccc4c(C)n(C)nc4c3)n2)cc1S(N)(=O)=O [Pazopanib Hydrochloride] | 78.9 ± 0.89 | 104 ± 5.5 | 110 ± 5.6 | 114.4 ± 0.52 | 104.7 ± 0.87 | 82.2 ± 1.6 | 92.7 ± 4.2 | 99.2 ± 3.9 | 102 ± 1.2 | 102.1 ± 1 | 100.8 ± 0.29 | 55.9 ± 1.2 |
| CCOc1cc2ncc(C#N)c(Nc3ccc(F)c(Cl)c3)c2cc1NC(=O)/C=C/CN(C)C [Pelitinib] | 104 ± 2.2 | 107.2 ± 0.9 | 121.9 ± 0.77 | 107 ± 4 | 80.44 ± 0.46 | 25.2 ± 3.6 | 102 ± 1.2 | 101 ± 1.5 | 100.5 ± 0.68 | 98.7 ± 3 | 65.38 ± 0.34 | 19.6 ± 1.3 |
| CCC[C@H](N[C@@H](C)C(=O)N1[C@H](C(=O)O)C[C@@H]2CCCC[C@@H]21)C(=O)OCC [Perindopril Erbumine] | 101 ± 0.48 | 106 ± 0.46 | 98.6 ± 1.7 | 104.3 ± 0.76 | 107.29 ± 0.055 | 73.7 ± 4.8 | 103.3 ± 0.76 | 108.5 ± 0.44 | 84.6 ± 1.6 | 111 ± 3.4 | 98.7 ± 11 | 79.52 ± 0.69 |
| N=C(N)NC(=N)NCCc1ccccc1 [Phenformin HCl] | 114.3 ± 0.035 | 113.5 ± 0.44 | 113 ± 1.9 | 112 ± 1.7 | 110 ± 8 | 105.3 ± 0.58 | 101 ± 5.7 | 102 ± 2.7 | 99.8 ± 1.6 | 104 ± 3.9 | 101 ± 5.7 | 101.9 ± 0.52 |
| O=C1N=C(O)NC1(c1ccccc1)c1ccccc1 [Phenytoin sodium] | 121 ± 4.2 | 90.6 ± 8.7 | 94.9 ± 4.7 | 86.6 ± 2.5 | 92 ± 6 | 100.3 ± 0.98 | 105 ± 2.1 | 105.8 ± 0.97 | 100 ± 2.4 | 101 ± 2.9 | 94.54 ± 0.49 | 101.8 ± 0.76 |
| O=C1NC(=O)C(c2ccccc2)(c2ccccc2)N1 [Phenytoin] | 109 ± 0.34 | 119 ± 4.6 | 101 ± 3 | 105 ± 1.9 | 97.4 ± 5 | 99.7 ± 1.3 | 105 ± 3.8 | 106 ± 6.7 | 100.3 ± 0.63 | 106 ± 4.5 | 101 ± 3 | 101 ± 7.8 |
| COc1ccc(-c2nc3cc(C4=NNC(=O)CC4C)ccc3[nH]2)cc1 (stereo not given) [Pimobendan (Vetmedin)] | 105.47 ± 0.018 | 106 ± 0.73 | 103 ± 2.5 | 108 ± 3.9 | 101 ± 2.5 | 87.99 ± 0.68 | 104 ± 2.3 | 101.7 ± 0.57 | 102.2 ± 0.15 | 100 ± 3.2 | 99.3 ± 3.6 | 84.13 ± 0.39 |
| CN1C(C(=O)Nc2ccccn2)=C(O)c2ccccc2S1(=O)=O [Piroxicam] | 98.4 ± 3.2 | 105 ± 8.5 | 111.3 ± 0.51 | 109 ± 4.4 | 103 ± 1.4 | 104 ± 9.8 | 110 ± 3 | 125 ± 2.3 | 126 ± 3.5 | 119.6 ± 0.1 | 112 ± 5 | 116.42 ± 0.082 |
| CCCN[C@H]1CCc2nc(N)sc2C1 [Pramipexole dihydrochloride monohydrate] | 91.3 ± 7.3 | 84.5 ± 4.2 | 101 ± 2.4 | 102 ± 1.4 | 91.4 ± 1.3 | 94.4 ± 1.9 | 98.1 ± 4.4 | 95.62 ± 0.72 | 101 ± 2.9 | 101 ± 1.8 | 105 ± 2.4 | 100.5 ± 0.52 |
